Patent US10492511B2, “Preparations” (Symrise AG, priority 2012, dated 2019)

What was measured:
[1] = Reduction in apatite solubility (ALR), lactic acid consumption at pH 5; details: 0.5 g hydroxyapatite in 300 ml water, 37° C., pH 5, 2 hours
Description: In order to determine the reduction in apatite stability, a blind test was first conducted. For this purpose, a reaction vessel with 300 ml of desalinated water was temperature-controlled to 37° C., and 0.5 g of hydroxyapatite powder (spec. surface area 60 m^2/g, Merck) was suspended therein. The pH value of the suspension was kept at a constant value of 5 by means of an automatic burette used to add lactic acid. The amount of 0.1 molar lactic acid consumed in order to stabilize the pH was registered with a recorder.
The reduction in apatite solubility (ALR in %) caused by the active ingredient was calculated as follows: ALR (%)=(Lu−Lb)*100/Lu (%)

[2] = Inhibition of crystal growth (KWI) of hydroxyapatite, KOH consumption at pH 7.4; details: 100 mg hydroxyapatite, pH 7.4, 2 hours
Description: In order to determine inhibition of crystal growth (KWI in %) by hydroxyapatite, a blind test was also first conducted. For this purpose, a reaction vessel with 400 ml of a 0.0008 molar solution of KH2PO4 and 45 ml of a 0.012 molar solution of CaCl2 was prepared. This solution was adjusted to a pH of 7.4 by titration with a 0.05 molar solution of KOH. After a stable pH value had been maintained for at least 30 minutes, 100 mg of hydroxyapatite powder (spec. surface area 60 m^2/g, Merck) was added. The pH value of the suspension was kept at a constant value of 7.4 by means of an automatic burette which can be used to add 0.05 molar KOH solution. The amount of 0.05 molar KOH solution consumed in order to stabilize the pH was registered with a recorder. The consumption of KOH solution (Ku) registered after 2 hours was equivalent to the formation of hydroxyapatite (growth of crystals in the suspension).
Inhibition of crystal growth by the active ingredient was calculated as follows: KWI (%)=(Ku−Kb)*100/Ku (%)

[3] = 30 mg active ingredient mixture
[4] = 150 mg active ingredient mixture

Structure (SMILES) | Apatite solubility [%] [1, 3] [%] | Apatite solubility [%] [1, 4] [%] | Crystal growth inhibition [%] ([2]; 5 mg active ingredient) | Crystal growth inhibition [%] ([2]; 6 mg active ingredient)
COC(=O)C(C)O (centres unmarked) [Example V9, Methyl lactate] | 5 | 12 | 10 | 14
Cc1ccc(C(C)C)c(OCC(=O)N(Cc2cccs2)c2cc[nH]n2)c1 [Example V11, 2-(2-isopropyl-5-methylphenoxy)-N-(1H-pyrazol-3-yl)-N-(thiophen-2-yl)-methylacetamide] | 5 | 14 | 11 | 16
CC1CCC(C(C)C)C2(C1)OCC(CO)O2 (centres unmarked) [Example V10, Menthone glyceryl acetal] | – | 13 | 9 | 17
